From US20240016781A1, “TREATMENT OF KRAS MUTANT CANCERS” (MEI Pharma, Inc., priority 2020, published 2024)
Like-named read-outs stand apart in the source and are kept apart here.

What was measured:
Assay in all cases: 72-hour CellTiter-Glo 2.0 growth inhibition screen (single agent, 9x9 combination dose matrix)
Format in all cases: cell-based
SW48 KRAS (G12D/+) = details: for Response Area: Colorectal
Protocol: (§1) Growth inhibition was determined using a 72-hour CellTiter-Glo®2.0 proliferation assay. Combination format was a 9×9 dose matrix. Six of the 20 cell lines received the original two combinations whilst the remaining 14 cell lines received two additional combinations resulting in four combinations in total. Results have been supplied as both Chalice Analyzer files (.mcc) and raw luminescence data.
(§2) Cell lines that have been preserved in liquid nitrogen are thawed and expanded in growth media (see Appendix I). Once cells have reached expected doubling times, screening begins. Cells are seeded in 25 μl of growth media in black 384-well tissue culture treated plates at 500 cells per well (as noted in Analyzer). Cells are equilibrated in assay plates via centrifugation and placed at 37° C. 5% CO2 for twenty-four hours before treatment. […] Compounds are transferred to assay plates using and Echo acoustic liquid handling system. […] of each compound was added at the appropriate concentration for all combination dose points. Therefore, final assay volume would be 25.05 μl. Assay plates are incubated with compound for 3 days and are then analyzed using CellTiter-Glo 2.0. All data points are collected via automated processes and are subject to quality control and analyzed.
(§3) If T≥V_0:100*(1−(T−V_0)/(V−V_0)) • where T is the signal measure for a test article, V is the untreated/vehicle-treated control measure, and Vo is the untreated/vehicle control measure at time zero (also colloquially referred as TO plates). This formula is derived from the Growth Inhibition calculation used in the National Cancer Institute's NCI-60 high throughput screen. For the purposes of this disclosure, all data analysis was performed in Growth Inhibition (except where noted).
(§4) Inhibition is also provided as a measure of cell viability. […] Inhibition of 100% represents no doubling of cell numbers during the treatment window. Both cytostatic and cytotoxic treatments can yield an Inhibition percentage of 100%. Inhibition percentage is calculated as the following: […]
(§5) The fractional inhibition for each component agent and combination point in the matrix is calculated relative to the median of all untreated/vehicle-treated control wells. The Synergy Score equation integrates the experimentally-observed activity volume at each point in the matrix in excess of a model surface numerically derived from the activity of the component agents using the Loewe model for additivity. Additional terms in the Synergy Score equation (above) are used to normalize for various dilution factors used for individual agents and to allow for comparison of synergy scores across an entire experiment. The inclusion of positive inhibition gating or an Idata multiplier removes noise near the zero-effect level, and biases results for synergistic interactions at that occur at high activity levels. Combinations with higher maximum Growth Inhibition (GI) effects or those which are synergistic at low concentrations will have higher Synergy Scores.
(§6) The CI is a rough estimate of how much drug was needed in combination relative to the single agent doses required to achieve the chosen effect level. CI values in the range of 0.5-0.7 are typical for in vitro measurements of current clinical combinations. The CI error (σCI) is calculated using standard error propagation through the CI calculation based on the isobologram errors. In the Chalice Analyzer, the Best CI is reported from the many CI values calculated for each Icut crossing combination. Among all the measured CI values, the one with the largest single-to-noise level (1−CI)/σCI is reported as the Best CI. Best CI Level is the effect level from which the CI is calculated.

NCI-H358 = details: for EC50: NCI-H358, 72 h
Protocol: as §1, §2, §3, §4, §5, §6

SW48 = details: for EC50 / Emax: Homo sapiens; for EC50: SW48, 72 h; for EC50 / Emax / Response Area: SW48, Colorectal
Protocol: as §1, §2, §3, §4, §5, §6

TOV-21G = system: TOV-21G
Protocol: as §1, §2, §3, §4, §5, §6

HPAF-II = details: for Response Area / EC50 / Emax: HPAF-II, Pancreas; for EC50 / Emax: Homo sapiens
Protocol: as §1, §2, §3, §4, §5, §6

[1] = SW48 KRAS (G12D/+), enhancer + MEI-522 (Voruciclib), 72 h
[2] = enhancer combined with MEI-522 (Voruciclib), SW48 KRAS (G12D/+) (Colorectal), 72 hours, inhibition data
[3] = NCl-H358 (KRAS G12C), enhancer + MEI-522 (Voruciclib), 72 h
[4] = enhancer combined with MEI-522 (Voruciclib), NCl-H358 (Lung), 72 hours, inhibition data
[5] = Additional Single Agent Responses (inhibition, % I), 72 h
[6] = Additional Single Agent Responses, 72 h, read-out: Max Response (% I)
[7] = growth inhibition (GI), single agent, 72 h, read-out: Max Response (% GI)
[8] = SW48 (KRAS WT), enhancer + MEI-522 (Voruciclib), 72 h
[9] = growth inhibition (GI), AUC, single agent, 72 h
[10] = enhancer combined with MEI-522 (Voruciclib), SW48 (Colorectal), 72 hours, inhibition data
[11] = TOV-21G (KRAS G13C), enhancer + MEI-522 (Voruciclib), 72 h
[12] = enhancer combined with MEI-522 (Voruciclib), TOV-21G (Ovary), 72 hours, inhibition data
[13] = HPAF-II (KRAS G12D), enhancer + MEI-522 (Voruciclib), 72 h
[14] = enhancer combined with MEI-522 (Voruciclib), HPAF-II (Pancreas), 72 hours, inhibition data

## C=CC(=O)N1CCN(c2nc(=O)n(-c3c(C)ccnc3C(C)C)c3nc(-c4c(O)cccc4F)c(F)cc23)[C@@H](C)C1 [AMG510]
SW48 KRAS (G12D/+)
  Bliss Volume: −0.98
SW48 KRAS (G12D/+); Homo sapiens, SW48, 72 h
  EC50: 3000 nM
SW48 KRAS (G12D/+); Homo sapiens, SW48, 72 h, read-out: Max Response (% GI)
  Emax: 15%
SW48 KRAS (G12D/+); Homo sapiens, SW48, 72 h, read-out: Max Response (% I)
  Emax: 11%
SW48 KRAS (G12D/+); SW48 KRAS (G12D/+), Additional Single Agent Responses (inhibition, % I), 72 h
  Response Area: 0.00
SW48 KRAS (G12D/+); SW48 KRAS (G12D/+), growth inhibition (GI), AUC, single agent, 72 h
  Response Area: 0.00
SW48 KRAS (G12D/+); [1]
  Best CI: 0.55
  Bliss Volume: 0.17
  Loewe Volume: 0.13
  Synergy Score: 2.74
SW48 KRAS (G12D/+); [2]
  Best CI: 1.38
  Loewe Volume: −0.76
  Synergy Score: 0.86
SW48 KRAS (G12D/+); enhancer combined with MEI-522 (Voruciclib), SW48 KRAS (G12D/+) (Colorectal), 72 hours, inhibition data, unit assumed
  Best CI Level: 20%
NCI-H358; Homo sapiens, NCl-H358, Lung, Additional Single Agent Responses (inhibition, % I), 72 h
  EC50: 8.5 nM
NCI-H358; Homo sapiens, NCl-H358, Lung, growth inhibition (GI) curve, single agent, 72 h
  EC50: 9.4 nM
NCI-H358; Homo sapiens, NCI-H358, NCl-H358, Lung, Additional Single Agent Responses (inhibition, % I), 72 h
  IC50: 14.2 nM
NCI-H358; Homo sapiens, NCI-H358, NCl-H358, Lung, Additional Single Agent Responses, 72 h, read-out: Max Response (% I)
  Emax: 79%
NCI-H358; Homo sapiens, NCI-H358, NCl-H358, Lung, growth inhibition (GI) curve, single agent, 72 h
  GI50: 8.8 nM
NCI-H358; Homo sapiens, NCI-H358, NCl-H358, Lung, growth inhibition (GI), single agent, 72 h, read-out: Max Response (% GI)
  Emax: 108%
NCI-H358; [3]
  Best CI: 0.51
  Bliss Volume: 4.55
  HSA volume: 2.53
  Loewe Volume: 2.07
  Synergy Score: 3.63
NCI-H358; NCl-H358, Lung, Additional Single Agent Responses (inhibition, % I), 72 h
  Response Area: 3.87
NCI-H358; NCl-H358, Lung, growth inhibition (GI), AUC, single agent, 72 h
  Response Area: 5.18
NCI-H358; [4]
  Best CI: 0.51
  Best CI Level: 20
  Bliss Volume: −0.42
  HSA volume: 1.90
  Loewe Volume: 1.20
  Synergy Score: 1.07
SW48; [5]
  EC50: 2710 nM
  Response Area: 0.48
SW48; growth inhibition (GI) curve, single agent, 72 h
  EC50: 2720 nM
SW48; [6]
  Emax: 14%
SW48; [7]
  Emax: 17%
SW48; [8]
  Best CI: 0.46
  Bliss Volume: 2.71
  HSA volume: 0.73
  Loewe Volume: 2.40
  Synergy Score: 4.05
SW48; [9]
  Response Area: 0.61
SW48; [10]
  Best CI: 0.50
  Bliss Volume: 1.20
  HSA volume: 0.35
  Loewe Volume: 1.24
  Synergy Score: 1.36
SW48; enhancer combined with MEI-522 (Voruciclib), SW48 (Colorectal), 72 hours, inhibition data, unit assumed
  Best CI Level: 35%
TOV-21G; Homo sapiens, TOV21G, TOV-21G, Ovary, Additional Single Agent Responses (inhibition, % I), 72 h
  EC50: 3000 nM
TOV-21G; Homo sapiens, TOV21G, TOV-21G, Ovary, Additional Single Agent Responses, 72 h, read-out: Max Response (% I)
  Emax: 7%
TOV-21G; Homo sapiens, TOV21G, TOV-21G, Ovary, growth inhibition (GI), single agent, 72 h, read-out: Max Response (% GI)
  Emax: 9%
TOV-21G; [11]
  Best CI: 0.37
  Bliss Volume: 2.49
  HSA volume: −6.11
  Loewe Volume: −3.64
  Synergy Score: 0.49
TOV-21G; TOV-21G, Ovary, Additional Single Agent Responses (inhibition, % I), 72 h
  Response Area: −0.01
TOV-21G; TOV-21G, Ovary, growth inhibition (GI), AUC, single agent, 72 h
  Response Area: −0.01
TOV-21G; [12]
  Best CI: 0.45
  Best CI Level: 20
  Bliss Volume: 2.55
  HSA volume: −4.28
  Loewe Volume: −2.46
  Synergy Score: 0.33
HPAF-II; [13]
  Best CI: 0.06
  Bliss Volume: −3.31
  HSA volume: −4.44
  Loewe Volume: −3.46
  Synergy Score: 0.12
HPAF-II; [5]
  Response Area: 0.32
HPAF-II; [9]
  Response Area: 0.47
HPAF-II; 72 h, Additional Single Agent Responses (inhibition, % I)
  EC50: 2400 nM
HPAF-II; 72 h, growth inhibition (GI) curve, single agent
  EC50: 2540 nM
HPAF-II; [6]
  Emax: 11%
HPAF-II; [7]
  Emax: 15%
HPAF-II; [14]
  Best CI: 1.03
  Bliss Volume: −2.30
  HSA volume: −3.13
  Loewe Volume: −2.28
  Synergy Score: 0.09
HPAF-II; enhancer combined with MEI-522 (Voruciclib), HPAF-II (Pancreas), 72 hours, inhibition data, unit assumed
  Best CI Level: 20%
